According to the supplement of paper PMC10307832:

Legend:
Assay in all cases: relative viability (nuclei count vs DMSO), 5 days (fraction); higher = more cells survive
Obatoclax + Lapatinib = compound: COC1=CC(c2cc3ccccc3[nH]2)=N/C1=C\c1[nH]c(C)cc1C [Obatoclax] + CS(=O)(=O)CCNCc1ccc(-c2ccc3ncnc(Nc4ccc(OCc5cccc(F)c5)c(Cl)c4)c3c2)o1 [Lapatinib] (partner 2 µM)
Method in brief: (§1)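 After 5 days of treatment, lung cancer cells in 1536-well plates were fixed and stained in a single step (final 0.05% Triton X-100, 1% formaldehyde, 1 ug/ml Hoechst) and their nuclei counted on 4× images. Treatment had been applied by pin tool the day after seeding as one drug alone or as a fixed anchor-drug dose with five library-drug doses (not always all listed) in √10 steps. Relative viability is the nuclei count of treated wells divided by that of vehicle wells, and values are medians of duplicate plates.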

Obatoclax + Luminespib = compound: COC1=CC(c2cc3ccccc3[nH]2)=N/C1=C\c1[nH]c(C)cc1C [Obatoclax] + CCNC(=O)c1noc(-c2cc(C(C)C)c(O)cc2O)c1-c1ccc(CN2CCOCC2)cc1 [Luminespib] (partner 0.01 µM)
Method in brief: as §1

Obatoclax + Trametinib = compound: COC1=CC(c2cc3ccccc3[nH]2)=N/C1=C\c1[nH]c(C)cc1C [Obatoclax] + CC(=O)Nc1cccc(-n2c(=O)n(C3CC3)c(=O)c3c(Nc4ccc(I)cc4F)n(C)c(=O)c(C)c32)c1 [Trametinib] (partner 0.02 µM)
Method in brief: as §1

Bortezomib + OSI-027 = compound: CC(C)C[C@H](NC(=O)[C@H](Cc1ccccc1)NC(=O)c1cnccn1)B(O)O [Bortezomib] + COc1cccc2cc(-c3nc([C@H]4CC[C@H](C(=O)O)CC4)n4ncnc(N)c34)[nH]c12 [OSI-027] (partner 0.5 µM)
Method in brief: as §1

Row | Cell Line | relative viability (Obatoclax + Lapatinib; first compound 0.01 µM) | relative viability (Obatoclax + Lapatinib; first compound 0.03162 µM) | relative viability (Obatoclax + Lapatinib; first compound 0.1 µM) | relative viability (Obatoclax + Lapatinib; first compound 0.3162 µM) | relative viability (Obatoclax + Lapatinib; first compound 1 µM) | relative viability (Obatoclax + Luminespib; first compound 0.01 µM) | relative viability (Obatoclax + Luminespib; first compound 0.03162 µM) | relative viability (Obatoclax + Luminespib; first compound 0.1 µM) | relative viability (Obatoclax + Luminespib; first compound 0.3162 µM) | relative viability (Obatoclax + Luminespib; first compound 1 µM) | relative viability (Obatoclax + Trametinib; first compound 0.01 µM) | relative viability (Obatoclax + Trametinib; first compound 0.03162 µM) | relative viability (Obatoclax + Trametinib; first compound 0.1 µM) | relative viability (Obatoclax + Trametinib; first compound 0.3162 µM) | relative viability (Obatoclax + Trametinib; first compound 1 µM) | relative viability (Bortezomib + OSI-027; first compound 0.0002 µM) | relative viability (Bortezomib + OSI-027; first compound 0.000632 µM) | relative viability (Bortezomib + OSI-027; first compound 0.002 µM) | relative viability (Bortezomib + OSI-027; first compound 0.006325 µM) | relative viability (Bortezomib + OSI-027; first compound 0.02 µM)
1 | NCI-H2126 | 0.736 | 0.733 | 0.809 | 0.739 | 0.802 | 0.857 | 0.876 | 0.875 | 0.806 | 0.679 | 0.57 | 0.493 | 0.526 | 0.55 | 0.546 | 0.737 | 0.652 | 0.622 | 0.62 | 0.663
2 | NCI-H2170 | 0.281 | 0.247 | 0.304 | 0.253 | 0.306 | 0.624 | 0.592 | 0.761 | 0.588 | 0.652 | 0.877 | 0.942 | 0.904 | 0.856 | 0.861 | 0.688 | 0.463 | 0.69 | 0.566 | 0.182
3 | NCI-H2228 | 1.04 | 0.826 | 0.986 | 0.627 | 0.335 | 0.164 | 0.109 | 0.138 | 0.113 | 0.186 | 0.573 | 0.454 | 0.576 | 0.473 | 0.474 | 0.51 | 0.674 | 0.294 | 0.0867 | 0.115
4 | NCI-H2347 | 0.933 | 0.901 | 0.542 | 0.89 | 0.857 | 0.595 | 0.374 | – | 0.269 | 0.23 | 0.312 | 0.305 | 0.27 | 0.237 | 0.277 | 0.559 | 0.367 | 0.291 | 0.182 | 0.194
5 | NCI-H2405 | 1.05 | 1.26 | – | 1.08 | 1.13 | 0.606 | 0.67 | – | 0.782 | 0.735 | 0.6 | 0.746 | – | 0.741 | 0.861 | 0.635 | 0.589 | 0.661 | 0.319 | 0.205
6 | NCI-H3122 | 0.987 | 1.05 | 0.964 | 1.03 | 1.03 | 0.0984 | 0.0854 | 0.0999 | 0.0772 | 0.0894 | 0.251 | 0.215 | 0.241 | 0.205 | 0.212 | 0.993 | 1.03 | 0.935 | 0.206 | 0.133
7 | PC-3 [JPC-3] | 0.456 | 0.406 | 0.469 | 0.443 | 0.457 | 0.652 | 0.606 | 0.742 | 0.683 | 0.745 | 0.643 | 0.71 | 0.621 | 0.667 | 0.47 | 0.807 | 0.824 | 0.806 | 0.446 | 0.122
8 | PC-14 | 0.297 | 0.309 | 0.334 | 0.257 | 0.301 | 0.132 | 0.138 | 0.148 | 0.13 | 0.146 | 0.719 | 0.665 | 0.513 | 0.104 | 0.0647 | – | 0.765 | 0.714 | 0.033 | 0.0438
9 | RERF-LC-KJ | 0.837 | 0.832 | 0.843 | 0.831 | 0.859 | 1.07 | 1.32 | 1.04 | 0.583 | 0.554 | 0.888 | 0.834 | 0.835 | 0.869 | 0.769 | 0.581 | 0.547 | 0.555 | 0.216 | 0.24
10 | SK-LU-1 | 0.75 | 0.87 | 0.61 | 0.637 | 0.621 | 0.195 | 0.205 | 0.173 | 0.173 | 0.11 | 0.454 | 0.568 | 0.447 | 0.414 | 0.311 | 0.336 | 0.286 | 0.319 | 0.125 | 0.122
11 | SK-MES-1 | 0.457 | 0.458 | 0.509 | 0.519 | 0.519 | 0.737 | 0.837 | 0.677 | 0.298 | 0.252 | 0.635 | 0.572 | 0.713 | 0.554 | 0.319 | 0.64 | 0.591 | 0.47 | 0.14 | 0.128
12 | SW 1573 | 1.06 | 1.16 | 1.31 | 1.13 | 0.559 | 0.26 | 0.442 | 0.206 | 0.188 | 0.164 | 0.669 | 0.606 | 0.346 | 0.144 | 0.152 | 0.658 | 0.665 | 0.234 | 0.0635 | 0.0625
13 | UMC-11 | 1.06 | 1.04 | 0.973 | 0.613 | 0.346 | 0.993 | 0.968 | 1.05 | 1.07 | 0.428 | 0.669 | 0.674 | 0.466 | 0.643 | 0.393 | 0.461 | 0.472 | 0.493 | 0.325 | 0.148
